One series addresses acetylcholine esterase (Homo sapiens, UniProt P22303). The series can be described thus: biochemical. An excerpt: The determination of the acetylcholine esterase inhibition was effected according to the method of Ellmann et al., Biochem. Pharmacol. 7 (1961) 88, and/or according to the method of Johnson et al., Analytical Biochemistry 64 (1975), 229.
The next series relates to rat. The series can be described thus: Toxicity, lowest lethal dose (LLD), rat.
The subject of a further series is mouse. The series can be described thus: Toxicity, lowest lethal dose (LLD), mouse. Conditions: po mouse. It counts as in vivo.
In another series the test system is Sigma. The experiment in a line: Sigma receptor binding, [3H]-DTG (Weber et al.). As to conditions: for Percentage inhibition: [3H]-DTG. An excerpt: (§1) Furthermore, the compounds of formula I have affinity for sigma receptors, determined according to Weber et al., Proc. Natl. Acad. Sci. USA 83 (1986), 8784) and in part also for muscarinic receptors, determined according to Watson et al., Pharmacol. Exp. Ther. 237 (1986), 419 and according to Eberlein et al., Trends Pharmacol. Science 10 (1989), 50.

A further series has as its system M1. The series can be described thus: Muscarinic M1 receptor binding, [3H]-Pirenzepine.
Source text: as §1

In a further series the test system is M2. The series can be described thus: Muscarinic M2 receptor binding, [3H]-AFDX 384.
Source text: as §1

In series [1] the test system is muscarinic receptors. The series can be described thus: Affinity for muscarinic receptors (Watson et al.; Eberlein et al.). It counts as binding.
Source text: as §1

The test system of series [2] is muscarinic receptors. The experiment in a line: Antagonism of contraction of guinea pig plexus myentericus preparation induced by muscarinic agonists (Kilbinger et al.). Conditions: micromolar concentrations.
Setting [3] is: IC 50 for acetylcholine esterase inhibition.
[4] abbreviates: read-out: IC 50 for acetylcholine esterase inhibition.

The structures appear in SMILES notation. Counter-ions that a name gives are not always drawn. Like-named read-outs stand apart in the source and are kept apart here.

Chain of acetylcholine esterase (P22303 32-614): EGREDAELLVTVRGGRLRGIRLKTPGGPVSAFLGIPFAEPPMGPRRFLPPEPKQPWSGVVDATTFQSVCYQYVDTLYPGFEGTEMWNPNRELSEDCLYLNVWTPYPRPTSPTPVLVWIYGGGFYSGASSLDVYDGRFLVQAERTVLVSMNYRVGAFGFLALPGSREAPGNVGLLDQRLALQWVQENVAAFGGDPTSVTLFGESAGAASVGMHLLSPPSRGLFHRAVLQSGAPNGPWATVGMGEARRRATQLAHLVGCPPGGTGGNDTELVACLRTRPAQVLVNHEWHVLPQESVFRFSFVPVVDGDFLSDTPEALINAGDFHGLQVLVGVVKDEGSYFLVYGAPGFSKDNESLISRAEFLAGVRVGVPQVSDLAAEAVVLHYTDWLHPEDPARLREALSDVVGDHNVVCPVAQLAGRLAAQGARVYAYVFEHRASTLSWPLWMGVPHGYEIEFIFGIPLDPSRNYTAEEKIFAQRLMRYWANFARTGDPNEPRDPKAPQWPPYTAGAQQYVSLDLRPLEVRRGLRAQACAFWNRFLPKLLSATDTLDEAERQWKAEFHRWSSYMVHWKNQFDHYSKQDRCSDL

`CN(C)C(=O)Oc1cccc2c1CC[C@H]1[C@@H]2CCN1CCC1CCCCC1.Cl` (racemic) [C, rac-cis-3-(2-cyclohexylethyl)-2,3,3a,4,5,9b-hexahydro-1H-benzo[e]indol-6-yl dimethylcarbamate hydrochloride]: the IC50 on acetylcholine esterase (setting [3]) is 16 nM. Also, the “LLD (lowest lethal dose)” value in the series on rat (ip rat) is recorded as 30 mg/kg.
`CN(C)C(=O)Oc1cccc2c1CC[C@H]1[C@@H]2CCN1CCCCN1C(=O)c2ccccc2C1=O.Cl` (racemic) [D, rac-cis-2,3,3a,4,5,9b-hexahydro-3-(4-phthalimidobutyl)-1H-benzo[e]indol-6-yl dimethylcarbamate hydrochloride] came in with an IC50 on acetylcholine esterase (setting [3]) of 1.4 nM. In addition, in the series on rat (ip rat), the “LLD (lowest lethal dose)” value was 3 mg/kg.
`CN(C)C(=O)Oc1cccc2c1CC[C@H]1[C@@H]2CCN1CCCCCCN1C(=O)c2ccccc2C1=O.Cl` (racemic) [E, rac-cis-2,3,3a,4,5,9b-hexahydro-3-(6-phthalimidohexyl)-1H-benzo[e]indol-6-yl dimethylcarbamate hydrochloride]: at acetylcholine esterase (setting [3]), the IC50 amounted to 0.4 nM. The “LLD (lowest lethal dose)” value in the series on rat (sc rat) turned out to be 10 mg/kg.
As for `CN(C)C(=O)Oc1cccc2c1CC[C@H]1[C@@H]2CCN1CCN1CCOCC1.Cl.Cl` (racemic) [F, rac-cis-2,3,3a,4,5,9b-hexahydro-3-(2-morpholinoethyl)-1H-benzo[e]indol-6-yl dimethylcarbamate dihydrochloride], at acetylcholine esterase (setting [3]), the IC50 came out at 108 nM. In addition, in the series on rat (sc rat), the “LLD (lowest lethal dose)” value worked out at 30 mg/kg.
As for `CCCN1CC[C@@H]2c3c(cccc3OC(=O)N(C)C)CC[C@@H]21` (racemic) [G, rac-cis-2,3,3a,4,5,9b-hexahydro-3-propyl-1H-benzo[e]indol-9-yl dimethylcarbamate], the IC50 at acetylcholine esterase (setting [4]) worked out at 350 nM. The “LLD (lowest lethal dose)” value in the series on mouse turned out to be 125 mg/kg.
As to `CCCN1C[C@@H](C)[C@@H]2c3cccc(OC(=O)N(C)C)c3CC[C@@H]21` (relative stereo) [H, rac-2,3,3aα,4,5,9bα-hexahydro-1α-methyl-3-propyl-1H-benzo[e]indol-6-yl dimethylcarbamate], at acetylcholine esterase (setting [4]), the IC50 amounted to 488 nM. In the series on rat (sc rat), the “LLD (lowest lethal dose)” value came to 100 mg/kg.
Turning to `CN(C)C(=O)Oc1cccc2c1CC[C@@H]1[C@H]2CCN1Cc1ccccc1` (relative stereo) [rac-3-benzyl-2,3,3a,4,5,9b-hexahydro-1H-cis-benzo[e]indol-6-yl dimethylcarbamate], at acetylcholine esterase (setting [4]), the IC50 is 49 nM.
The same measure, in the same setting: then `CN(C)C(=O)Oc1cccc2c1CC[C@@H]1[C@H]2CCN1CCCCNC(=O)c1ccc(S(C)(=O)=O)cc1` (relative stereo) [rac-N-[4-(6-dimethylcarbamoyloxy)-cis-2,3,3a,4,5,9b-hexahydro-1H-benzo[e]indol-3-yl)-butyl]-4-methanesulfonylbenzamide], with 6.7 nM; and `CCNC(=O)Oc1cccc2c1CC[C@H]1[C@@H]2CCN1CCC1CCCCC1` (single isomer, unassigned) [(+)-cis-3-(2-cyclohexylethyl)-2,3,3a,4,5,9b-hexahydro-1H-benzo[e]indol-6-yl ethylcarbamate], with 2460 nM; and `CCN(C)C(=O)Oc1cccc2c1CC[C@H]1[C@@H]2CCN1CCC1CCCCC1` (single isomer, unassigned) [(+)-cis-3-(2-cyclohexylethyl)-2,3,3a,4,5,9b-hexahydro-1H-benzo[e]indol-6-yl ethylmethylcarbamate], with 3.5 nM.
In the case of `CNC(=O)Oc1cccc2c1CC[C@H]1[C@@H]2CCN1CCC1CCCCC1` (single isomer, unassigned) [(+)-cis-3-(2-cyclohexylethyl)-2,3,3a,4,5,9b-hexahydro-1H-benzo[e]indol-6-yl methylcarbamate], the IC50 on acetylcholine esterase (setting [4]) worked out at 18 nM.
On the same count and under the same terms, then `CCCNC(=O)Oc1cccc2c1CC[C@H]1[C@@H]2CCN1CCC1CCCCC1` (single isomer, unassigned) [(+)-cis-3-(2-cyclohexylethyl)-2,3,3a,4,5,9b-hexahydro-1H-benzo[e]indol-6-yl propylcarbamate], with 2.6 nM.
On to `CN(C)C(=O)Oc1cccc2c1CC[C@H]1[C@H]2CCN1CCC1CCCCC1` (single isomer, unassigned) [(+)-trans-3-(2-cyclohexylethyl)-2,3,3a,4,5,9b-hexahydro-1H-benzo[e]indol-6-yl dimethylcarbamate], for which the IC50 on acetylcholine esterase (setting [4]) was 22 nM.
`CN(C)C(=O)Oc1cccc2c1CC[C@H]1[C@@H]2CCN1CCC1CCCCC1.Cl` (single isomer, unassigned) [A, (+)-cis-3-(2-cyclohexylethyl)-2,3,3a,4,5,9b-hexahydro-1H-benzo[e]indol-6-yl dimethylcarbamate hydrochloride] yielded an IC50 on acetylcholine esterase (setting [3]) of 22 nM. Moreover, in the series with Sigma, the “affinity for sigma receptors (in words)” value is “affinity to sigma receptors”. The Percentage inhibition with Sigma (10^-5 M) turned out to be 100.7%; in the series on Sigma (10^-7 M) it was 62.1%; in the series on M1 (10^-5 M), 87.9%; in the series on M1 (10^-7 M) it was 2.2%; in the series on M2 ([3H]-AFDX 384, 10^-5 M), 94.8%; with M2 ([3H]-AFDX 384, 10^-7 M), 31.3%. Moreover, the “affinity for muscarinic receptors (in words)” value in the series on muscarinic receptors [1] is recorded as “preferential affinity for muscarinic receptors of the M2 type”. Also, the “antagonism of contraction induced by muscarinic agonists (in words)” value in the series with muscarinic receptors [2] is listed as “in micromolar concentrations it antagonizes a contraction of a preparation of guinea pig plexus myentericus induced by muscarinic agonists”. In addition, the “LLD (lowest lethal dose)” value with rat (sc rat) stood at 30 mg/kg.
For `CN(C)C(=O)Oc1cccc2c1CC[C@H]1[C@@H]2CCN1CCC1CCCCC1` (single isomer, unassigned) [B, (-)-cis-3-(2-cyclohexylethyl)-2,3,3a,4,5,9b-hexahydro-1H-benzo[e]indol-6-yl dimethylcarabamate hydrochloride], at acetylcholine esterase (setting [4]), the IC50 came out at 30 nM. The “LLD (lowest lethal dose)” value in the series on rat (sc rat) came to 30 mg/kg.

The values are drawn from US5318967A, “2,3,3a,4,5,9b-hexahydro-1H-benzo[e]indole derivatives” (priority 1991, dated 1994).
